Source: the NIST ThermoML archive (doi:10.1016/j.tca.2013.05.030)
± gives the expanded uncertainty stated by the source.

Assay: mn = molality of the nth substance listed, in mol/kg
Conditions: 101 kPa, Liquid; for viscosity: Capillary tube (Ostwald / Ubbelohde) method; for mass density: Pycnometric method; for speed of sound: Sing-around technique in a fixed-path interferometer

`CC(C)Cc1ccc(C(C)C(=O)[O-])cc1.[Na+]` (stereo not given) [sodium ibuprofen] + O showed a viscosity (298.15 K, m1 = 0.1048) of 0.973 ± 0.009 mPa·s, a viscosity (298.15 K, m1 = 0.1525) of 1.007 ± 0.009 mPa·s and a viscosity (298.15 K, m1 = 0.2231) of 1.07 ± 0.01 mPa·s. The viscosity (298.15 K, m1 = 0.3179) was 1.173 ± 0.011 mPa·s, the viscosity (298.15 K, m1 = 0.3721) was 1.242 ± 0.011 mPa·s and the viscosity (298.15 K, m1 = 0.4422) was 1.342 ± 0.012 mPa·s. The viscosity (298.15 K, m1 = 0.4678) was 1.381 ± 0.012 mPa·s, the mass density (298.15 K, m1 = 0.1048) was 1001.4 ± 0.3 kg/m3 and the mass density (298.15 K, m1 = 0.1525) was 1003.2 ± 0.3 kg/m3. For the same molecule, the mass density (298.15 K, m1 = 0.2231) was 1005.8 ± 0.3 kg/m3, the mass density (298.15 K, m1 = 0.3179) was 1009.1 ± 0.4 kg/m3 and the mass density (298.15 K, m1 = 0.3721) was 1010.9 ± 0.4 kg/m3. It also gave a mass density (298.15 K, m1 = 0.4422) of 1013.1 ± 0.4 kg/m3, a mass density (298.15 K, m1 = 0.4678) of 1013.9 ± 0.4 kg/m3 and a speed of sound (298.15 K, m1 = 0.1048) of 1512.8 ± 1 m/s. It also gave a speed of sound (298.15 K, m1 = 0.1525) of 1518.4 ± 1 m/s, a speed of sound (298.15 K, m1 = 0.2231) of 1525.6 ± 1 m/s and a speed of sound (298.15 K, m1 = 0.3179) of 1533.2 ± 1 m/s. The speed of sound (298.15 K, m1 = 0.3721) was 1536.4 ± 1 m/s, the speed of sound (298.15 K, m1 = 0.4422) was 1540 ± 1 m/s and the speed of sound (298.15 K, m1 = 0.4678) was 1540.8 ± 1 m/s. It also gave a viscosity (303.15 K, m1 = 0.1048) of 0.867 ± 0.008 mPa·s, a viscosity (303.15 K, m1 = 0.1525) of 0.897 ± 0.008 mPa·s and a viscosity (303.15 K, m1 = 0.2231) of 0.953 ± 0.009 mPa·s. The viscosity (303.15 K, m1 = 0.3179) was 1.043 ± 0.01 mPa·s, the viscosity (303.15 K, m1 = 0.3721) was 1.104 ± 0.01 mPa·s and the viscosity (303.15 K, m1 = 0.4422) was 1.194 ± 0.011 mPa·s. The viscosity (303.15 K, m1 = 0.4678) was 1.228 ± 0.011 mPa·s, the mass density (303.15 K, m1 = 0.1048) was 999.9 ± 0.4 kg/m3 and the mass density (303.15 K, m1 = 0.1525) was 1001.7 ± 0.4 kg/m3. For the same molecule, the mass density (303.15 K, m1 = 0.2231) was 1004.3 ± 0.4 kg/m3, the mass density (303.15 K, m1 = 0.3179) was 1007.5 ± 0.4 kg/m3 and the mass density (303.15 K, m1 = 0.3721) was 1009.3 ± 0.4 kg/m3. The mass density (303.15 K, m1 = 0.4422) was 1011.5 ± 0.4 kg/m3, the mass density (303.15 K, m1 = 0.4678) was 1012.3 ± 0.4 kg/m3 and the speed of sound (303.15 K, m1 = 0.1048) was 1523.6 ± 1 m/s. For the same molecule, the speed of sound (303.15 K, m1 = 0.1525) was 1528.4 ± 1 m/s, the speed of sound (303.15 K, m1 = 0.2231) was 1534.4 ± 1 m/s and the speed of sound (303.15 K, m1 = 0.3179) was 1540.8 ± 1 m/s. It also gave a speed of sound (303.15 K, m1 = 0.3721) of 1543.2 ± 1 m/s, a speed of sound (303.15 K, m1 = 0.4422) of 1546.4 ± 1 m/s and a speed of sound (303.15 K, m1 = 0.4678) of 1547.2 ± 1 m/s. It also gave a viscosity (308.15 K, m1 = 0.1048) of 0.78 ± 0.007 mPa·s, a viscosity (308.15 K, m1 = 0.1525) of 0.808 ± 0.007 mPa·s and a viscosity (308.15 K, m1 = 0.2231) of 0.857 ± 0.008 mPa·s. The viscosity (308.15 K, m1 = 0.3179) was 0.937 ± 0.009 mPa·s, the viscosity (308.15 K, m1 = 0.3721) was 0.992 ± 0.009 mPa·s and the viscosity (308.15 K, m1 = 0.4422) was 1.072 ± 0.01 mPa·s. For the same molecule, the viscosity (308.15 K, m1 = 0.4678) was 1.104 ± 0.01 mPa·s, the mass density (308.15 K, m1 = 0.1048) was 998.2 ± 0.4 kg/m3 and the mass density (308.15 K, m1 = 0.1525) was 1000 ± 0.4 kg/m3. For the same molecule, the mass density (308.15 K, m1 = 0.2231) was 1002.5 ± 0.4 kg/m3, the mass density (308.15 K, m1 = 0.3179) was 1005.7 ± 0.4 kg/m3 and the mass density (308.15 K, m1 = 0.3721) was 1007.4 ± 0.4 kg/m3. For the same molecule, the mass density (308.15 K, m1 = 0.4422) was 1009.6 ± 0.4 kg/m3, the mass density (308.15 K, m1 = 0.4678) was 1010.4 ± 0.4 kg/m3 and the speed of sound (308.15 K, m1 = 0.1048) was 1532 ± 1 m/s. For the same molecule, the speed of sound (308.15 K, m1 = 0.1525) was 1536.4 ± 1 m/s, the speed of sound (308.15 K, m1 = 0.2231) was 1542 ± 1 m/s and the speed of sound (308.15 K, m1 = 0.3179) was 1548 ± 1 m/s. It also gave a speed of sound (308.15 K, m1 = 0.3721) of 1550.8 ± 1 m/s, a speed of sound (308.15 K, m1 = 0.4422) of 1553.6 ± 1 m/s and a speed of sound (308.15 K, m1 = 0.4678) of 1554.4 ± 1 m/s. The viscosity (313.15 K, m1 = 0.1048) was 0.707 ± 0.007 mPa·s, the viscosity (313.15 K, m1 = 0.1525) was 0.732 ± 0.007 mPa·s and the viscosity (313.15 K, m1 = 0.2231) was 0.777 ± 0.007 mPa·s. The viscosity (313.15 K, m1 = 0.3179) was 0.848 ± 0.008 mPa·s, the viscosity (313.15 K, m1 = 0.3721) was 0.898 ± 0.008 mPa·s and the viscosity (313.15 K, m1 = 0.4422) was 0.969 ± 0.009 mPa·s. It also gave a viscosity (313.15 K, m1 = 0.4678) of 0.997 ± 0.009 mPa·s, a mass density (313.15 K, m1 = 0.1048) of 996.3 ± 0.4 kg/m3 and a mass density (313.15 K, m1 = 0.1525) of 998 ± 0.4 kg/m3. It also gave a mass density (313.15 K, m1 = 0.2231) of 1000.5 ± 0.4 kg/m3, a mass density (313.15 K, m1 = 0.3179) of 1003.6 ± 0.4 kg/m3 and a mass density (313.15 K, m1 = 0.3721) of 1005.3 ± 0.4 kg/m3. For the same molecule, the mass density (313.15 K, m1 = 0.4422) was 1007.4 ± 0.4 kg/m3, the mass density (313.15 K, m1 = 0.4678) was 1008.1 ± 0.4 kg/m3 and the speed of sound (313.15 K, m1 = 0.1048) was 1539.2 ± 1 m/s. The speed of sound (313.15 K, m1 = 0.1525) was 1542.8 ± 1 m/s, the speed of sound (313.15 K, m1 = 0.2231) was 1547.6 ± 1 m/s and the speed of sound (313.15 K, m1 = 0.3179) was 1552.8 ± 1 m/s. For the same molecule, the speed of sound (313.15 K, m1 = 0.3721) was 1555.2 ± 1 m/s, the speed of sound (313.15 K, m1 = 0.4422) was 1557.2 ± 1 m/s and the speed of sound (313.15 K, m1 = 0.4678) was 1558 ± 1 m/s.

In the case of `O` [water] + CC(C)Cc1ccc(C(C)C(=O)[O-])cc1.[Na+], the speed of sound (313.15 K, m2 = 0) is reported as 1528.8 ± 1 m/s.
